Measured values reported in article PMC12048553, “Labels as a feature: Network homophily for systematically annotating human GPCR drug-target interactions” (Nature Communications, 2025).

Target: CHRM3 (Homo sapiens, UniProt P20309)
Test: yeast-expressed receptor NanoLuc screen at […], |Z-score| […]
Format: cell-based

Chain of CHRM3 (P20309 whole entry): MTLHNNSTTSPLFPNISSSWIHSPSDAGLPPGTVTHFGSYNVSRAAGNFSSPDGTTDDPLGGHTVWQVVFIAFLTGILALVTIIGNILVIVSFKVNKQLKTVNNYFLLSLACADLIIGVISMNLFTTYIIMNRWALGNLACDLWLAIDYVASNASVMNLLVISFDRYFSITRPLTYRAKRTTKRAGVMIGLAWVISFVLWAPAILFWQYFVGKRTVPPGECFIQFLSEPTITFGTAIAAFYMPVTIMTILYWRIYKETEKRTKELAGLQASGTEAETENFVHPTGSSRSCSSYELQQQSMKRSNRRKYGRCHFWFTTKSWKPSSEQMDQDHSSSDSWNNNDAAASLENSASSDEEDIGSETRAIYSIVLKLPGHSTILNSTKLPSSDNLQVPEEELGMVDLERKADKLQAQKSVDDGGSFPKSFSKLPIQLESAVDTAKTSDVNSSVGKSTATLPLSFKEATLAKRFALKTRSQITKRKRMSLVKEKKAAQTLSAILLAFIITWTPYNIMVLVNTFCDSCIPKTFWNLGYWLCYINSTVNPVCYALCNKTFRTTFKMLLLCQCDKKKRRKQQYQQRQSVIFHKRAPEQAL

CC(C)OC(=O)CCC/C=C\C[C@@H]1[C@@H](CC[C@@H](O)CCc2ccccc2)[C@H](O)C[C@@H]1O [Latanoprost]
yeast-expressed receptor NanoLuc screen at 10 uM, |Z-score| > 3: Latanoprost for mitigating increased intraoccular pressure may be partially explained by the observed interaction with CHRM3
